Source: ChEMBL document CHEMBL1138067, “A new synthesis of sulfonamides by aminolysis of p-nitrophenylsulfonates yielding potent and selective adenosine A2B receptor antagonists” (J Med Chem, 2006)

What was measured:
Adenosine receptor A2b = molecular target: T1, Adenosine receptor A2b (Homo sapiens, UniProt P29275); assay: Displacement of [3H]PSB298 from human recombinant adenosine A2B receptor expressed in CHO cells; assay type: cell-based
T1 sequence (P29275 whole entry): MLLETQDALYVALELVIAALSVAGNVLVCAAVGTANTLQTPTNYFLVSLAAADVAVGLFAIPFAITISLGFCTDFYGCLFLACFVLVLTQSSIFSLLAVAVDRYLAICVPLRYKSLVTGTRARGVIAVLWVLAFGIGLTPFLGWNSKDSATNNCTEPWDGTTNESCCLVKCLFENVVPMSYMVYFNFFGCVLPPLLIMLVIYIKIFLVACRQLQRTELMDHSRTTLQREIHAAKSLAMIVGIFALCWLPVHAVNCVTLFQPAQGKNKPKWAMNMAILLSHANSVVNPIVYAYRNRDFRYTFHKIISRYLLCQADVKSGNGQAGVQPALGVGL

Adenosine receptor A3 [1] = molecular target: T2, Adenosine receptor A3 (Homo sapiens, UniProt P0DMS8); assay: Displacement of [3H]PSB11 from human recombinant adenosine A3 receptor expressed in CHO cells; assay type: cell-based
T2 sequence (P0DMS8 whole entry): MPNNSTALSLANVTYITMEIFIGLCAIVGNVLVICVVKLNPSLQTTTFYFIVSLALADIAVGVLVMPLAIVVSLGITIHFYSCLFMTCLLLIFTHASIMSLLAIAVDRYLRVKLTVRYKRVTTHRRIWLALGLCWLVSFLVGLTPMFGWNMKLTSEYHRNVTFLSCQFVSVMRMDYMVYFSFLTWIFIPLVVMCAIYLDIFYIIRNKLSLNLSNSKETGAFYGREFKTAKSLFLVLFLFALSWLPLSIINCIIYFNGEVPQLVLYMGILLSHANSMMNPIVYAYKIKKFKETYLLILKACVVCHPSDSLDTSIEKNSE

Adenosine receptor A1 [2] = molecular target: T3, Adenosine receptor A1 (Rattus norvegicus, UniProt P25099); assay: Displacement of [3H]CCPA from adenosine A1 receptor in rat brain cortical membranes; assay type: cell membranes, Membrane
T3 sequence (P25099 whole entry): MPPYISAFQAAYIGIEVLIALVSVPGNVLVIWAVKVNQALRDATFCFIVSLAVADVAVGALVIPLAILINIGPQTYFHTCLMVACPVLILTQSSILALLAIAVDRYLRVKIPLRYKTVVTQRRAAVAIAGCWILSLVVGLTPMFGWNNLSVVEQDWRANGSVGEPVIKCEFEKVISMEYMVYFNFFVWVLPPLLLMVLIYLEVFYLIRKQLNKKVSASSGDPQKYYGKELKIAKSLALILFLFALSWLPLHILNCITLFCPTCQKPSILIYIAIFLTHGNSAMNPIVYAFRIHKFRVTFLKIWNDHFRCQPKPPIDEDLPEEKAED

Adenosine receptor A2a [3] = molecular target: Adenosine receptor A2a (Rattus norvegicus, UniProt P30543); assay: Displacement of [3H]MSX2 from adenosine A2A receptor in rat brain striatal membranes; assay type: cell membranes, Membrane
Chain of Adenosine receptor A2a (Rattus norvegicus, UniProt P30543) (P30543 whole entry): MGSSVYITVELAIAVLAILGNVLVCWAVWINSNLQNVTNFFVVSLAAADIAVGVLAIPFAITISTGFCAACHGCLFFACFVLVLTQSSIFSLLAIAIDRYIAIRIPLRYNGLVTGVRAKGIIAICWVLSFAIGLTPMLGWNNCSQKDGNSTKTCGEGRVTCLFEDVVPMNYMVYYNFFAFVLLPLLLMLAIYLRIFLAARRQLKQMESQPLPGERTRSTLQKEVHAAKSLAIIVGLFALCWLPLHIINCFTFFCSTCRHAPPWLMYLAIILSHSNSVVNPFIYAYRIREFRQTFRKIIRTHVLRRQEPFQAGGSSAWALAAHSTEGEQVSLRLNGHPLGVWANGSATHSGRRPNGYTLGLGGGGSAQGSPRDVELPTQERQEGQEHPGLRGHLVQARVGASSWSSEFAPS

[4] = molecular target: Adenosine receptors; A1 & A2b (Homo sapiens) (UniProt P30542+P29275); assay: Selectivity for human adenosine A2B receptor over adenosine A1 receptor; assay type: protein assay
[5] = molecular target: Adenosine receptors; A2b & A3 (Homo sapiens) (UniProt P29275+P0DMS8); assay: Selectivity for human adenosine A2B receptor over adenosine A3 receptor; assay type: protein assay
[6] = molecular target: T4, Adenosine receptor A3 (Homo sapiens) (UniProt P0DMS8); assay: Inhibition of [3H]PSB11 binding to human recombinant adenosine A3 receptor in CHO cells at >1 uM; assay type: cell-based
T4 sequence (whole entry): T2 sequence (P0DMS8 whole entry)

Adenosine receptor A1 [7] = molecular target: T5, Adenosine receptor A1 (Homo sapiens, UniProt P30542); assay: Displacement of [3H]CCPA from human recombinant adenosine A1 receptor expressed in CHO cells; assay type: cell-based
T5 sequence (P30542 whole entry): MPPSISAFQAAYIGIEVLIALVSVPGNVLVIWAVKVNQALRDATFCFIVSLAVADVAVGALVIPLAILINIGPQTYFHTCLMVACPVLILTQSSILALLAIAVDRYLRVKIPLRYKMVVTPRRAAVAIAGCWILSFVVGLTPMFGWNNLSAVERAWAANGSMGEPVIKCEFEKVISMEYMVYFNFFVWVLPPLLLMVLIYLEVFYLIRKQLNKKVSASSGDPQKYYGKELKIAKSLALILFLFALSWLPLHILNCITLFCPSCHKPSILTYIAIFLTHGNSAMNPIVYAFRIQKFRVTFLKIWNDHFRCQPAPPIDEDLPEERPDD

Adenosine receptor A2a [8] = molecular target: Adenosine receptor A2a (Homo sapiens, UniProt P29274); assay: Displacement of [3H]MSX2 from human recombinant adenosine A2A receptor expressed in CHO cells; assay type: cell-based
Chain of Adenosine receptor A2a (Homo sapiens, UniProt P29274) (P29274 whole entry): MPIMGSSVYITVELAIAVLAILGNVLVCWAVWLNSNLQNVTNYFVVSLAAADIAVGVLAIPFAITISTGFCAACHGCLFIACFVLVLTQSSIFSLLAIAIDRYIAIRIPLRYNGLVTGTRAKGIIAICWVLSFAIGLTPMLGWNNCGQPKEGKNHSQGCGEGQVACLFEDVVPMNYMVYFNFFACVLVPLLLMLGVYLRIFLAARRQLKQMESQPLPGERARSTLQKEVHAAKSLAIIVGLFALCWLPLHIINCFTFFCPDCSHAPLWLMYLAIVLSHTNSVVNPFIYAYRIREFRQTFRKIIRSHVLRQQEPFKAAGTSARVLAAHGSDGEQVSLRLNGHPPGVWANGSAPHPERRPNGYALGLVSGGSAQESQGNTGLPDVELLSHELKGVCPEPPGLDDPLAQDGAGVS

[9] = molecular target: T4, Adenosine receptor A3 (Homo sapiens); assay: Inhibition of [3H]PSB11 binding to human recombinant adenosine A3 receptor in CHO cells at >10 uM; assay type: cell-based
[10] = molecular target: T4, Adenosine receptor A3 (Homo sapiens); assay: (§1) Inhibition of [3H]PSB11 binding to human recombinant adenosine A3 receptor in CHO cells at >=10 uM; assay type: cell-based
Adenosine receptor A3 [11] = molecular target: T2, Adenosine receptor A3; assay: as §1; assay type: cell-based
Adenosine receptor A3 [12] = molecular target: T2, Adenosine receptor A3; assay: Displacement of [125I]AB-MECA from human recombinant adenosine A3 receptor expressed in CHO cells; assay type: cell-based
[13] = molecular target: T4, Adenosine receptor A3 (Homo sapiens); assay: Inhibition of [3H]PSB11 binding to human recombinant adenosine A3 receptor in CHO cells at >=1 uM; assay type: cell-based

Q: Which results are given for `CCCn1c(=O)[nH]c2nc(-c3ccc(S(=O)(=O)NCC(=O)O)cc3)[nH]c2c1=O`?
A: Ki (Adenosine receptor A2b): 101 nM; Ki (Adenosine receptor A3 [1]): > 10000 nM; Ki (Adenosine receptor A1 [2]): 100 nM; Ki (Adenosine receptor A2a [3]): 320 nM

Q: Which results are given for `CCCn1c(=O)[nH]c2nc(-c3ccc(S(=O)(=O)N4CCN(Cc5ccccc5)CC4)cc3)[nH]c2c1=O`?
A: Ki (Adenosine receptor A2b): 3.6 nM; Ki (Adenosine receptor A3 [1]): > 1000 nM; Selectivity ratio [4]: 574; Selectivity ratio [5]: > 278; inhibition [6]: 29%; Ki (Adenosine receptor A1 [2]): 260 nM; Ki (Adenosine receptor A1 [7]): 2070 nM; Ki (Adenosine receptor A2a [3]): 93.7 nM; Ki (Adenosine receptor A2a [8]): 484 nM

Q: For `CC(C)NS(=O)(=O)c1ccc(-c2nc3c(=O)n(C)c(=O)n(C)c3[nH]2)cc1`, which inhibition [9] is on record?
A: 27%

Q: Which Ki (Adenosine receptor A2b) does the source give for `CCCn1c(=O)[nH]c2[nH]c(-c3ccc(S(=O)(=O)NCCO)cc3)nc2c1=O` here?
A: 27.1 nM

Q: And the Ki (Adenosine receptor A3 [1])?
A: ≥ 10000 nM

Q: What about the inhibition [10] of the same compound?
A: 36%

Q: What about the Ki (Adenosine receptor A1 [2]) of the same compound?
A: 45 nM

Q: And the Ki (Adenosine receptor A2a [3])?
A: 287 nM

Q: For `Cn1c(=O)c2nc(-c3ccc(S(=O)(=O)NCC(=O)O)cc3)[nH]c2n(C)c1=O`, which Ki (Adenosine receptor A2b) is on record?
A: 154 nM

Q: And the Ki (Adenosine receptor A3 [1])?
A: ≥ 10000 nM

Q: And the inhibition (Adenosine receptor A3 [11])?
A: 41%

Q: What about the Ki (Adenosine receptor A1 [2]) of the same compound?
A: 64 nM

Q: What about the Ki (Adenosine receptor A2a [3]) of the same compound?
A: 182 nM

Q: How did the Ki (Adenosine receptor A3 [12]) turn out when `Cn1c(=O)c2[nH]c(-c3ccc(S(=O)(=O)O)cc3)nc2n(C)c1=O` was run?
A: 5890 nM

Q: How did the Ki (Adenosine receptor A2b) turn out when `CC(C)NS(=O)(=O)c1ccc(-c2nc3c([nH]2)c(=O)n(C)c(=O)n3C)cc1` was run?
A: 102 nM

Q: What about the Ki (Adenosine receptor A3 [1]) of the same compound?
A: > 10000 nM

Q: What about the Ki (Adenosine receptor A1 [2]) of the same compound?
A: 75 nM

Q: What about the Ki (Adenosine receptor A2a [3]) of the same compound?
A: 283 nM

Q: Which results are given for `CCCCNS(=O)(=O)c1ccc(-c2nc3c([nH]2)c(=O)n(C)c(=O)n3C)cc1`?
A: Ki (Adenosine receptor A2b): 122 nM; Ki (Adenosine receptor A3 [1]): ≥ 10000 nM; Ki (Adenosine receptor A1 [2]): 27 nM; Ki (Adenosine receptor A2a [3]): 165 nM

Q: With `CCCn1c(=O)[nH]c2[nH]c(-c3ccc(S(=O)(=O)Nc4ccccc4)cc3)nc2c1=O` as the compound, how does the Ki (Adenosine receptor A2b) read?
A: 31.4 nM

Q: And the Ki (Adenosine receptor A3 [1])?
A: ≥ 1000 nM

Q: And the inhibition [13]?
A: 48%

Q: What about the Ki (Adenosine receptor A1 [2]) of the same compound?
A: 1.8 nM

Q: And the Ki (Adenosine receptor A2a [3])?
A: 23 nM

Q: How did the Ki (Adenosine receptor A2b) turn out when `CCCN(CCC)S(=O)(=O)c1ccc(-c2nc3[nH]c(=O)n(CCC)c(=O)c3[nH]2)cc1` was run?
A: 53.8 nM

Q: And the Ki (Adenosine receptor A3 [1])?
A: > 1000 nM

Q: What about the Ki (Adenosine receptor A1 [2]) of the same compound?
A: 5.5 nM

Q: What about the Ki (Adenosine receptor A2a [3]) of the same compound?
A: 42 nM

Q: What does the source list for `CCCn1c(=O)[nH]c2nc(-c3ccc(S(=O)(=O)O)cc3)[nH]c2c1=O`?
A: Ki (Adenosine receptor A3 [1]): > 10000 nM; Ki (Adenosine receptor A1 [7]): > 10000 nM

Q: How did the Ki (Adenosine receptor A2b) turn out when `CCCn1c(=O)[nH]c2[nH]c(-c3ccc(S(=O)(=O)NCCc4ccccc4)cc3)nc2c1=O` was run?
A: 3.62 nM

Q: What about the Ki (Adenosine receptor A3 [1]) of the same compound?
A: ≥ 10000 nM

Q: What about the Selectivity ratio [4] of the same compound?
A: 50

Q: And the Selectivity ratio [5]?
A: > 2700

Q: And the inhibition [10]?
A: 37%

Q: What about the Ki (Adenosine receptor A1 [2]) of the same compound?
A: 10 nM

Q: What about the Ki (Adenosine receptor A1 [7]) of the same compound?
A: 183 nM

Q: What about the Ki (Adenosine receptor A2a [3]) of the same compound?
A: 297 nM

Q: And the Ki (Adenosine receptor A2a [8])?
A: 769 nM

Q: For `CCCN(CCC)S(=O)(=O)c1ccc(-c2nc3c(=O)n(CCC)c(=O)[nH]c3[nH]2)cc1`, which inhibition [6] is on record?
A: 18%

Q: With `CCCCNS(=O)(=O)c1ccc(-c2nc3c(=O)n(C)c(=O)n(C)c3[nH]2)cc1` as the compound, how does the inhibition [10] read?
A: 43%

Q: `Cn1c(=O)c2[nH]c(-c3ccc(S(=O)(=O)NCCO)cc3)nc2n(C)c1=O` was tested. Which Ki (Adenosine receptor A2b) did it give?
A: 250 nM

Q: What about the Ki (Adenosine receptor A3 [1]) of the same compound?
A: ≥ 10000 nM

Q: And the Ki (Adenosine receptor A1 [2])?
A: 98 nM

Q: What about the Ki (Adenosine receptor A2a [3]) of the same compound?
A: 347 nM

Q: Which results are given for `CCCn1c(=O)[nH]c2[nH]c(-c3ccc(S(=O)(=O)NCc4ccccc4)cc3)nc2c1=O`?
A: Ki (Adenosine receptor A2b): 4.2 nM; Ki (Adenosine receptor A3 [1]): ≥ 1000 nM; Selectivity ratio [4]: 13; Selectivity ratio [5]: > 200; inhibition [13]: 41%; Ki (Adenosine receptor A1 [2]): 4.6 nM; Ki (Adenosine receptor A1 [7]): 54.8 nM; Ki (Adenosine receptor A2a [3]): 26.7 nM; Ki (Adenosine receptor A2a [8]): 162 nM

Q: `Cn1c(=O)c2[nH]c(-c3ccc(S(=O)(=O)NCCc4ccccc4)cc3)nc2n(C)c1=O` was tested. Which Ki (Adenosine receptor A2b) did it give?
A: 4.48 nM

Q: And the Ki (Adenosine receptor A3 [1])?
A: 1080 nM

Q: And the Ki (Adenosine receptor A1 [2])?
A: 12 nM

Q: What about the Ki (Adenosine receptor A1 [7]) of the same compound?
A: 185 nM

Q: And the Ki (Adenosine receptor A2a [3])?
A: 113 nM

Q: What about the Ki (Adenosine receptor A2a [8]) of the same compound?
A: 32.6 nM

Q: For `CCCn1c(=O)[nH]c2[nH]c(-c3ccc(S(=O)(=O)NCC(=O)O)cc3)nc2c1=O`, which inhibition [9] is on record?
A: 25%

Q: With `Cn1c(=O)c2nc(-c3ccc(S(=O)(=O)NCCO)cc3)[nH]c2n(C)c1=O` as the compound, how does the inhibition [10] read?
A: 49%
